# “Also recorded” adds a separate entry of the source.
# Test system: 293T cells
# Assay: RT-PCR of muscle specific gene expression in permeabilized 293T cells incubated with cell extracts, with or without transcription modifying agents or conditioned media
# Type: cell-based, human
# Text: A hallmark of a particular cell type is its gene expression profile. Reverse-Transcription of the expressed RNA in a cell, combined with Polymerase Chain Reaction aided amplification of the signal (RT-PCR), was used to detect the expression levels of these genes and provide a method to detect cell reprogramming. This example illustrates RT-PCR assays for detection of muscle specific genes in C2C12 cells (FIG. 5). Total RNA prepared from C2C12 cells at different stages of differentiation (t=0, t=3, t=6) or from 293T cells or HeLa cells were used in an RT-PCR reaction with primers specific to the muscle specific genes, MyoD or Myogenin. […] RT-PCR conditions for the detection of late muscle specific genes Troponin T and Myosin Heavy Chain, and for the hES cell marker Oct-4, were also established. Due to its relatively high sensitivity, gene expression analysis using RT-PCR was used to detect expression of marker genes in permeablized and potentially reprogrammed recipient cells.
# Cell extracts were introduced into a recipient cell by reversible permeabilization of recipient cells using the pore-forming, calcium sensitive bacterial toxin Streptolysin O (SLO) and exposure of these cells to reprogramming cell extracts. Limited and transient exposure of cells to low doses of SLO in the absence of calcium ions allows the formation of membrane pores large enough to allow the passive diffusion of proteins up to the size of 100 kilodaltons, but not large enough for organelles. Subsequently, reversal of this membrane permeabilization by adding calcium ions allows the membrane to repair itself and the resealed cells are viable and can proliferate. During the permeabilization process, the recipient cell was incubated with whole cell extracts or nuclear or cytoplasmic extracts of a desired cell type (“donor cell”), and (in some experiments) in the presence of permeabilization/reprogramming promoting agents such as an energy generating system and cytoskeletal disruptors. The whole cell extract is believed to provide regulatory factors that are taken up by the permeabilizing recipient cell. The plasma membrane was then resealed, the cells were allowed to recover and cultured further, in conditions conducive to desired reprogramming. […] The resultant changes in gene expression profiles may arise over time, and may be further promoted by subsequent rounds of treatment with donor cell extract.
# Cells were treated with reprogramming extracts (or control 293T “self” extracts) as above.
# We next turned to testing the effects of these treatments on reprogramming potential by evaluating reprogramming of 293T or primary NHDF-N cells incubated with cell extracts from the C2C12 muscle differentiating system by gene expression analysis (RT-PCR). In the case of examining the effects of transcription modifying agents, several variations of treatment plans were envisioned. The agents can be applied before or after permeabilizing the cells (or both) and for different durations of time, as long as the cells survive the treatment. Plausibly, different treatment designs could potentially lead to different effects.
# [1] = agents applied after priming/permeabilization of C2C12 extract exposed 293T cells, 5-aza 10 uM, SB 10 mM, TSA 10 nM
# [2] = agents for 48 hours before permeabilization, 293T self extract
smiles,measurement,setting,value
CC(/C=C/C(=O)NO)=C\[C@@H](C)C(=O)c1ccc(N(C)C)cc1 [Trichostatin A],level of MyoD RNA detection,[1],did not appear to enhance the level of MyoD expression
same,level of MyoD RNA detection,"agents for 48 hours before permeabilization, C2C12 extract incubated 293T cells, relative to C2C12 extract alone, listed as TSA",appeared to enhance the level detection of this RNA; also recorded: enhance the level detection of this RNA slightly
CCCC(=O)[O-].[Na+] [Sodium Butyrate],level of MyoD RNA detection,[1],small increase in expression
same,level of MyoD RNA detection,"agents applied after priming/permeabilization of C2C12 extract exposed 293T cells, 5-aza 10 uM, SB 10 mM, TSA 10 nM, listed as SB",did not appear to enhance the level of MyoD expression
same,MyoD expression in cells incubated with control self extract,[2],low level of expression of MyoD
same,level of MyoD RNA detection,"agents for 48 hours before permeabilization, C2C12 extract incubated 293T cells, relative to C2C12 extract alone, listed as SB",appeared to enhance the level detection of this RNA; also recorded: enhance the level detection of this RNA slightly
Nc1ncn([C@@H]2O[C@H](CO)[C@@H](O)[C@H]2O)c(=O)n1 [5-azacytidine],MyoD expression in cells primed with control self extract,"agent applied post priming, 293T self extract",low level of expression of MyoD
same,level of MyoD RNA detection,[1],did not appear to enhance the level of MyoD expression
same,MyoD expression in cells incubated with control self extract,[2],low level of expression of MyoD
same,level of MyoD RNA detection,"agents for 48 hours before permeabilization, C2C12 extract incubated 293T cells, relative to C2C12 extract alone",appeared to enhance the level detection of this RNA; also recorded: enhance the level detection of this RNA slightly
same,Troponin T transcript at later timepoints,"later timepoints, modifier treated and C2C12 extract incubated 293T cells",more abundant and more specific

# From patent US20120184035A1, “Methods and Compositions For Reprogramming Cells” (priority 2011, published 2012)
